Assay results taken from the NIST ThermoML archive (doi:10.1021/je030218b).

What was measured:
[1] = refractive index (Na D-line) (dimensionless); xn = mol fraction of the nth substance listed; conditions: 298.15 K, 101 kPa, Liquid, Standard Abbe refractometry
[2] = xn = mol fraction of the nth substance listed; conditions: 298.15 K, 101 kPa, Liquid
[3] = Liquid; for mass density / speed of sound: 298.15 K, 101.33 kPa
[4] = refractive index (Na D-line) (dimensionless); conditions: 298.15 K; 101.33 kPa; Liquid; Standard Abbe refractometry

CC(C)CO [2-methyl-1-propanol] + CCOC(C)=O
Conditions	refractive index, [1]	speed of sound, [2] [m/s]
x2 = 0.052	1.39253	1186.1
x2 = 0.104	1.39136	1184.4
x2 = 0.155	1.39012	1182.9
x2 = 0.206	1.3889	1181.5
x2 = 0.258	1.38753	1179.3
x2 = 0.308	1.38611	1177.5
x2 = 0.359	1.3847	1175.6
x2 = 0.41	1.3833	1174.2
x2 = 0.46	1.38169	1171.3
x2 = 0.51	1.3803	1169
x2 = 0.56	1.37842	1165.2
x2 = 0.609	1.37674	1163
x2 = 0.659	1.37505	1160.4
x2 = 0.708	1.37301	1158.2
x2 = 0.757	1.37111	1155.3
x2 = 0.806	1.36884	1152.8
x2 = 0.855	1.36675	1150.1
x2 = 0.904	1.36431	1147.4
x2 = 0.952	1.36189	1144.7

CCOC(C)=O [ethyl acetate]
Conditions	mass density [kg/m3]	refractive index	speed of sound [m/s]
[3]	894.24	–	1137.7
[4]	–	1.3698	–

Conditions	vapor or sublimation pressure [kPa]
[3], 350.25 K	101.3

CCCCCO [pentan-1-ol]
Conditions	mass density [kg/m3]	refractive index	speed of sound [m/s]
[3]	810.96	–	1273.3
[4]	–	1.4077	–

Conditions	vapor or sublimation pressure [kPa]
[3], 410.59 K	101.3

CC(C)CO [2-methyl-1-propanol]
Conditions	mass density [kg/m3]	refractive index	speed of sound [m/s]
[3]	797.84	–	1185.6
[4]	–	1.3937	–

Conditions	vapor or sublimation pressure [kPa]
[3], 381 K	101.3

CCCCCO [pentan-1-ol] + CCOC(C)=O
Conditions	mass density, [2] [kg/m3]	refractive index, [1]	speed of sound, [2] [m/s]
x2 = 0.05	814.16	1.40579	1263.5
x2 = 0.101	817.63	1.40382	1253.8
x2 = 0.15	821.07	1.40193	1245
x2 = 0.2	824.6	1.40012	1236.5
x2 = 0.251	828.3	1.39803	1227.5
x2 = 0.3	831.9	1.39629	1219.9
x2 = 0.35	835.73	1.39423	1211.9
x2 = 0.4	839.69	1.3925	1204.5
x2 = 0.45	843.69	1.39052	1198.2
x2 = 0.5	847.81	1.38863	1190.5
x2 = 0.549	851.89	1.38676	1184.1
x2 = 0.599	856.06	1.38493	1178.8
x2 = 0.65	860.53	1.38303	1172.1
x2 = 0.7	865.01	1.38107	1166.8
x2 = 0.749	869.4	1.37919	1161.7
x2 = 0.8	874.19	1.37733	1157.1
x2 = 0.85	879	1.37548	1152.2
x2 = 0.898	883.69	1.3736	1148
x2 = 0.947	888.68	1.37188	1144.1

CCO [ethanol]
Conditions	mass density [kg/m3]	refractive index	speed of sound [m/s]
[3]	785.36	–	1143.1
[4]	–	1.35916	–

Conditions	vapor or sublimation pressure [kPa]
[3], 351.5 K	101.3
